For one molecule, Activity and GI50 results are on record in ChEMBL document CHEMBL5500388, “Design, synthesis and biological evaluation of 4-(indolin-1-yl)-6-substituted-pyrido[3,2-d]pyrimidine derivatives as Mnk1/2 inhibitors” (Eur J Med Chem, 2024).

Test [1] deals with K562. The experiment in a line: Induction of cell cycle arrest at G0/G1 stage in human K562 cells at 4 uM treated for 24 hrs by PI/RNase staining based flow cytometry (reference value: 38.8 %). The class given is functional. In general terms: In flow cytometry, cells or beads pass a laser one at a time.
In test [2] the test system is K562. Briefly: cells. The settings on record: Homo sapiens, K562, 72 h.
Test [3] has as its system K562. Briefly: Induction of cell cycle arrest at G0/G1 stage in human K562 cells at 8 uM treated for 24 hrs by PI/RNase staining based flow cytometry (reference value: 38.8 %). The format is functional.
Test [4] deals with MOLM-13. Briefly: Induction of cell cycle arrest at G0/G1 stage in human MOLM-13 cells at 2 uM treated for 24 hrs by PI/RNase staining based flow cytometry (reference value: 53.98 %). The format is functional.
Test [5] concerns MOLM-13. Briefly: Induction of cell cycle arrest at G0/G1 stage in human MOLM-13 cells at 4 uM treated for 24 hrs by PI/RNase staining based flow cytometry (reference value: 53.98 %). The format is functional.
The test system of a further test is HL-60. Briefly: cells. The settings on record: Homo sapiens, HL-60, 72 h.
In test [6] the test system is MOLM-13. The experiment in a line: Induction of cell cycle arrest at G0/G1 stage in human MOLM-13 cells at 8 uM treated for 24 hrs by PI/RNase staining based flow cytometry (reference value: 53.98 %). The class given is functional.
For a further test, the system named is HCT-116. Briefly: cells. The settings on record: Homo sapiens, HCT-116, 96 h.
Test [7] has as its system MOLM-13. The experiment in a line: cells. The following applies: Homo sapiens, MOLM-13, 72 h.
Test [8] deals with K562. Briefly: Induction of cell cycle arrest at G0/G1 stage in human K562 cells at 16 uM treated for 24 hrs by PI/RNase staining based flow cytometry (reference value: 38.8 %). The format is functional.

A word on the GI50: it is the concentration that inhibits growth by half. A high value points to less potent growth inhibition. In the case of `Nc1ncnc2[nH]nc(Nc3ccc(F)cc3)c12`, the Activity with K562 [1] is listed as 48.93%; with K562 [3] it was 52.06%; in the test on MOLM-13 [4] it was 55.79%; in the test on MOLM-13 [5], 59.95%; in the test on MOLM-13 [6], 66.39%; in the test with K562 [8], 58.15%. The 50% growth inhibitory concentration (GI50) with K562 [2] was 26.6 µM; in the test on HL-60, 8.42 µM; in the test on HCT-116 it was 10.2 µM; in the test with MOLM-13 [7], 10.7 µM.
